For this experiment, the system named is Trypanosoma cruzi. Briefly: Antitrypanosomal activity against Trypanosoma cruzi Tulahuen infected in mouse 3T3 cells. It counts as functional, organism-based. The settings on record: NIH3T3.
A word on the EC50: it is the concentration that produces a half-maximal response. In turn, `COC(c1ccc(Cl)cc1)(c1ccc2cncc(-c3cccc(Cl)c3)c2c1)c1cncn1C` (stereo not given) returned an EC50 of 0.5 nM. `Cn1cncc1[C@@](N)(c1ccc(Cl)cc1)c1ccc2c(c1)c(-c1cccc(Cl)c1)cc(=O)n2C` [TIPIFARNIB] had an EC50 of 4 nM. Regarding `COC(c1ccc(Cl)cc1)(c1ccc2cnccc2c1)c1cncn1C` (stereo not given), the EC50 was 120 nM. The result for `CC[C@@H]([C@H](C)O)n1ncn(-c2ccc(N3CCN(c4ccc(OC[C@@H]5CO[C@@](Cn6cncn6)(c6ccc(F)cc6F)C5)cc4)CC3)cc2)c1=O` [POSACONAZOLE] reads 0.3 nM. `COC(c1ccc(Cl)cc1)(c1ccc2cncc(-c3c(F)cccc3F)c2c1)c1cncn1C` (stereo not given) came in with an EC50 of 0.9 nM.

The record behind these values is ChEMBL document CHEMBL1154671, “Isoquinoline-based analogs of the cancer drug clinical candidate tipifarnib as anti-Trypanosoma cruzi agents” (Bioorg Med Chem Lett, 2009).
